Measurements: the PolyMetriX glass transition set
± gives the standard deviation of the reports.

Row | SMILES | glass transition temperature [°C]
1 | *c1ccc(Oc2ccc(Oc3ccc(-n4c(=O)c5cc6c(=O)n(*)c(=O)c6cc5c4=O)cc3)cc2)c(C(F)(F)F)c1 (repeat unit) | 272.20
2 | *Oc1ccc(C(C)(C)c2ccc(OC(=O)OCCCCOC(*)=O)cc2)cc1 (repeat unit) | 56.50
3 | *Oc1ccc(S(=O)(=O)c2ccc(*)cc2)cc1 (repeat unit) | 225.00
4 | *CCCCCC(*)C (repeat unit) | -66.00
5 | *O[Si](C)(C)O[Si](C)(C)O[Si](C)(C)c1ccc(Oc2ccc([Si](*)(C)C)cc2)cc1 (repeat unit) | -37.00
6 | *C(=O)Nc1ccc(Oc2ccc(-c3ccc(Oc4ccc(NC(=O)c5ccc6c(c5)C(=O)N(c5ccc(Oc7ccc(S(=O)(=O)c8ccc(Oc9ccc(N%10C(=O)c%11ccc(*)cc%11C%10=O)cc9)cc8)cc7)cc5)C6=O)cc4)cc3)cc2)cc1 (repeat unit) | 267.00
7 | *CC(*)C(=O)OCC(F)(F)C(F)(F)F (repeat unit) | -26.00
8 | *Oc1cc(CCCCCCCCCCC)cc(OC(=O)c2cccc(C(*)=O)c2)c1 (repeat unit) | 34.50
9 | *Nc1ccc(-c2ccc(NC(=O)Cc3cc(CC(*)=O)c(C)cc3C)cc2)cc1 (repeat unit) | 230.00
10 | *Oc1ccc(C(C)(C)c2ccc(Oc3ccc(C(=O)c4ccc(C(c5ccc(C(=O)c6ccc(*)cc6)cc5)(C(F)(F)F)C(F)(F)F)cc4)cc3)cc2)cc1 (repeat unit) | 181.00
11 | *CC1CCCC(CN2C(=O)c3ccc(C(c4ccc5c(c4)C(=O)N(*)C5=O)(C(F)(F)F)C(F)(F)F)cc3C2=O)C1 (repeat unit) | 222.00
12 | *Nc1ccc(Cc2ccc(NC(=O)c3cc(C(*)=O)cc(N4C(=O)C5C6C=CC(C6)C5C4=O)c3)cc2)cc1 (repeat unit) | 303.00
13 | */C(=C/c1cc(OC)c(/C=C(/c2ccc(*)cc2)c2ccc(F)cc2)cc1OC)c1ccc(F)cc1 (repeat unit) | 193.00
14 | *CC/C(=C(/*)c1ccccc1)c1ccccc1 (repeat unit) | 120.50
15 | *CCCCCNC(=O)c1ccc(C(=O)N*)cc1 (repeat unit) | 177.00
16 | *CC(*)(C)C(=O)OCCCCCCCCOc1ccc(/N=N/c2ccc(C#N)cc2)cc1 (repeat unit) | 35.00
17 | *Oc1ccc(OC(=O)c2cccc(Oc3cccc(C(*)=O)c3)c2)cc1 (repeat unit) | 119.00
18 | */C=C/c1cc(OCCCCCCCCCCCC)c(/C=C/c2ccc(*)cc2)cc1OCCCCCCCCCCCC (repeat unit) | 38.00
19 | *CCCCOC(=O)c1ccc([Si](C)(C)c2ccc(C(=O)O*)cc2)cc1 (repeat unit) | 42.00
20 | *OCCOC(=O)c1cccc(C(=O)OCCOc2nc(-c3ccc(OCCCC)cc3)nc(*)c2-c2ccc(OC)cc2)c1 (repeat unit) | 92.00
21 | *CCN(C)C(=O)CCCCCCCCC(=O)N(*)C (repeat unit) | 0.00
22 | *CC(*)(CC(=O)OCC1CCCCC1)C(=O)OCC1CCCCC1 (repeat unit) | 83.00
23 | *Cc1cc(C23CC4CC(CC(C4)C2)C3)cc(CN(*)C)c1O (repeat unit) | 188.80

Row | SMILES | glass transition temperature [°C]
24 | *c1ccc(-c2sc(-c3cc(CCCC)c(*)s3)cc2CCCC)cc1 (repeat unit) | 122.30
25 | *C(=O)Nc1ccc(Oc2ccccc2-c2ccccc2Oc2ccc(NC(=O)c3ccc4c(c3)C(=O)N(c3ccc(Oc5ccc(-c6ccc(Oc7ccc(N8C(=O)c9ccc(*)cc9C8=O)cc7)cc6)cc5)cc3)C4=O)cc2)cc1 (repeat unit) | 239.00
26 | *Oc1ccc(C(C)(C)c2ccc(Oc3ccc(C(=O)c4ccccc4-c4ccccc4C(=O)c4ccc(*)cc4)cc3)cc2)cc1 (repeat unit) | 172.00
27 | *c1ccc(Oc2ccc(Oc3ccc(Oc4ccc(N5C(=O)c6ccc(Oc7ccc(Oc8ccc9c(c8)C(=O)N(*)C9=O)cc7)cc6C5=O)cc4)cc3)cc2)cc1 (repeat unit) | 210.00
28 | *Nc1cccc(NC(=O)c2ccc(NC(=O)c3ccc([Si](C)(C)c4ccc(C(=O)Nc5ccc(C(*)=O)cc5)cc4)cc3)cc2)c1 (repeat unit) | 303.00
29 | *C(=O)Nc1cccc(P(=O)(c2ccccc2)c2cccc(NC(=O)c3ccc4c(c3)C(=O)N(c3cccc(P(=O)(c5ccccc5)c5cccc(N6C(=O)c7ccc(*)cc7C6=O)c5)c3)C4=O)c2)c1 (repeat unit) | 206.00
30 | *c1cc(Br)c(-c2c(Br)cc(N3C(=O)c4ccc(-c5ccc6c(c5)C(=O)N(*)C6=O)cc4C3=O)cc2C(=O)OCCCCCCCCCCCCCCCC)c(C(=O)OCCCCCCCCCCCCCCCC)c1 (repeat unit) | 92.00
31 | *CC(*)OC(=O)c1ccccc1C (repeat unit) | 42.50
32 | *CC(*)(C)C(=O)OCCCCCC (repeat unit) [poly(hexyl methacrylate)] | -6.6 ± 7.2
33 | *Oc1ccc(Sc2ccc(Sc3ccc(Sc4ccc(*)cc4)cc3)cc2)cc1 (repeat unit) | 84.00
34 | *C(=O)c1ccccc1-c1ccccc1C(=O)N1CCN(*)CC1 (repeat unit) | 193.00
35 | *Oc1ccc(S(=O)(=O)c2ccc(Oc3ccc(C(c4ccc(*)cc4)(C(F)(F)F)C(F)(F)F)cc3)cc2C(O)(C(F)(F)F)C(F)(F)F)c(C(O)(C(F)(F)F)C(F)(F)F)c1 (repeat unit) | 148.00
36 | *CC(CC(*)(C#N)C#N)c1ccc(OC(C)=O)cc1 (repeat unit) | 180.00
37 | *Oc1ccc(Oc2ccc(/C=N/CCCCCCCCCC/N=C/c3ccc(*)cc3)cc2)cc1 (repeat unit) | 108.00
38 | *CCCCCCOc1ccc(C(=O)N(C(=O)c2ccc(O*)cc2)c2cccc3ccccc23)cc1 (repeat unit) | 56.00
39 | *c1cc(C(C(=O)OC)C(=O)OC)c(*)s1 (repeat unit) | -20.10
40 | *Oc1cc(C(C)(C)c2ccccc2)c(OC(=O)c2ccc(C(*)=O)cc2)cc1C(C)(C)c1ccccc1 (repeat unit) | 170.00
41 | *Oc1ccc(C(C)(C)c2ccc(C(C)(C)c3ccc(Oc4ccc(C(=O)Nc5ccc(NC(=O)c6ccc(*)cc6)cc5)cc4)cc3)cc2)cc1 (repeat unit) | 163.00
42 | *CCCCOC(=O)CCCCCNC(=O)CCCCC(=O)NCCCCCC(=O)O* (repeat unit) | -15.00
43 | *Oc1c(-c2ccccc2)cc(*)cc1-c1ccc(C(C)(C)C)cc1 (repeat unit) | 240.00
44 | *Nc1cc(NC(=O)c2cc(OCCN(C)c3ccc([N+](=O)[O-])cc3)cc(C(*)=O)c2)cc(C(=O)OC)c1 (repeat unit) | 177.00
45 | *c1ccc(Oc2ccc(Oc3ccc(-n4c(=O)c5cc6c(=O)n(*)c(=O)c6cc5c4=O)cc3)cc2-c2ccccc2)cc1 (repeat unit) | 271.00
46 | *Oc1ccc(C(CCC)c2ccc(OC(*)=S)cc2)cc1 (repeat unit) | 130.00

Row | SMILES | glass transition temperature [°C]
47 | *Oc1ccc(-c2ccc(OC(=O)c3cc(OCCCc4ccccc4)c(C(*)=O)cc3OCCCc3ccccc3)cc2)cc1 (repeat unit) | 72.00
48 | *CC(*)(C)C(=O)OCC(O)C1CC(C)(c2ccccc2)C1 (repeat unit) | 105.00
49 | *CC(=O)NCCCCCCNC(=O)CC1COC(*)CO1 (repeat unit) | 73.00
50 | *Cc1ccc2oc(=O)c(C(=O)Nc3ccc(C(c4ccc(NC(=O)c5cc6cc(*)ccc6oc5=O)cc4)(C(F)(F)F)C(F)(F)F)cc3)cc2c1 (repeat unit) | 329.00
51 | *CC(O)CN(C)S(=O)(=O)c1ccc(-c2ccc(S(=O)(=O)N(C)CC(O)COc3ccc(C(C)(C)c4ccc(O*)cc4)cc3)cc2)cc1 (repeat unit) | 101.00
52 | */C=C/c1cc(OCC(CC)CCCC)c(*)cc1-c1ccc(N(c2ccc(OC)cc2)c2ccc(OC)cc2)cc1 (repeat unit) | 163.00
53 | *CCCCCCNC(=O)CCCCCCCCCCC(=O)N* (repeat unit) [Poly(iminohexamethyleneiminododecanedioyl)] | 45.92 ± 0.1
54 | *c1nc(C)nc(N(CCCCN(*)c2ccccc2)c2ccccc2)n1 (repeat unit) | 85.00
55 | */C(C#N)=C/c1cc(OCCCCCCCCCCCC)c(/C=C(\C#N)c2cc(OCCCCCCCCCCCC)c(*)cc2OC)cc1OC (repeat unit) | 181.00
56 | *COC(=O)OCC1OC(OCC)OC1* (repeat unit) | 23.50
57 | *Oc1ccc(NC(=O)CCCCCCCCCC(=O)Nc2ccc(*)cc2)cc1 (repeat unit) | 150.00
58 | *Oc1cccc(Oc2cccc(*)n2)c1 (repeat unit) | 82.00
59 | *c1cccc(N2C(=O)c3ccc(-c4cccc5c4C(=O)N(*)C5=O)cc3C2=O)c1 (repeat unit) | 341.00
60 | *c1ccc(-c2nnc(*)o2)c(OCCCCC)c1 (repeat unit) | 205.00
61 | *Oc1ccc(C(=O)OCC(C)(C)COC(=O)c2ccc(*)cc2)cc1 (repeat unit) | 73.00
62 | *CC(*)(C)C(=O)OCCN(CC)CC (repeat unit) | 26.00
63 | *CC(*)(C)C(=O)OCCCCCCCCCCOc1ccc(OC(=O)c2ccc(OC)cc2)cc1 (repeat unit) | 21.00
64 | *Oc1c(C(C)C)cc(C(=O)c2cccc(C(=O)c3ccc(*)cc3)c2)cc1C(C)C (repeat unit) | 132.00
65 | *CCOCCOCCOCCOc1ccc(C(=O)Nc2cc(NC(=O)c3ccc(O*)cc3)cc(-c3nc4ccccc4[nH]3)c2)cc1 (repeat unit) | 163.00
66 | *CC(*)C(=O)c1ccc(Br)c(OC)c1 (repeat unit) | 44.00
67 | *CC(*)C(=O)OCC(C)(C)C (repeat unit) | 22.00
68 | *c1ccc(/C=C/c2cc(OCCCCCCCC)c(/C=C/c3ccc(N(*)c4ccccc4)cc3)cc2OCCCCCCCC)cc1 (repeat unit) | 74.00
